Data taken from US11547683B2, “Therapeutic compounds, formulations, and uses thereof” (Tvardi Therapeutics, Inc., priority 2020, dated 2023).

Assay: Studies on oxidation of the compound of Formula (I)
Format: physicochemical
Method: Stability was analyzed using a variety of antioxidants. A bulk formulation containing Kolliphor® RH 40, PEG600, Polysorbate 80, Labrasol®, and Transcutol® HP (45:15:10:20:10 by weight) was prepared with a compound of Formula (I) concentration of 60 mg/g. Antioxidants, including Vitamin E (0.05 wt %), ascorbyl palmitate (0.05 wt %), butylated hydroxytoluene (0.005 wt %), and triethyl citrate (0.7 wt %) were dissolved/dispersed in the bulk formulation, respectively. The resulting samples were placed at room temperature in glass vials and protected from light. The samples were monitored for purity by HPLC at 0, 3, and 8 weeks.

- susceptibility to oxidation: susceptible to oxidation
Compound: COc1ccc(S(=O)(=O)Nc2cc(-c3c(O)ccc4ccccc34)c(O)c3ccccc23)cc1 [Compound of Formula (I)]
